O=c1[nH]cc(F)c(=O)[nH]1
solubility (mole fraction)
Conditions | 293.15 K | 298.15 K | 303.15 K | 308.15 K | 313.15 K | 318.15 K | 323.15 K
in ethanol | 0.00246 | 0.00277 | 0.00307 | 0.0034 | 0.00382 | 0.00411 | 0.00455
in water | 0.00155 | 0.00176 | 0.00195 | 0.00214 | 0.00241 | 0.00278 | 0.00312
